In PubChem BioAssay (NCI):
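Values below derive from 48-hour exposures of cells grown in 96-well plates, with endpoints linearly interpolated between the two concentrations bracketing the appropriate inhibition level. GI50 marks 50% less growth. At the TGI there is no net growth.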

Tests used:
Assay in all cases: inhibition of tumour cell growth, NCI panel, 48 h
OVCAR-4 ovarian = system: OVCAR-4 ovarian
SK-MEL-2 melanoma = system: SK-MEL-2 melanoma
HCT-15 colon = system: HCT-15 colon
HOP-62 NSCLC = system: HOP-62 NSCLC
K-562 leukemia = system: K-562 leukemia
RXF 393 renal = system: RXF 393 renal
UACC-257 melanoma = system: UACC-257 melanoma
XF 498 CNS = system: XF 498 CNS
SF-539 CNS = system: SF-539 CNS
HCT-116 colon = system: HCT-116 colon
SN12C renal = system: SN12C renal
SNB-75 CNS = system: SNB-75 CNS
NCI-H226 lung = system: NCI-H226 lung
SW-620 colon = system: SW-620 colon
786-0 renal = system: 786-0 renal
HT29 colon = system: HT29 colon
UACC-62 melanoma = system: UACC-62 melanoma
SK-MEL-5 melanoma = system: SK-MEL-5 melanoma
NCI-H460 lung = system: NCI-H460 lung
MALME-3M melanoma = system: MALME-3M melanoma
RPMI-8226 leukemia = system: RPMI-8226 leukemia
HOP-18 NSCLC = system: HOP-18 NSCLC
KM20L2 colon = system: KM20L2 colon
SF-268 CNS = system: SF-268 CNS
SR leukemia = system: SR leukemia
SF-295 CNS = system: SF-295 CNS
OVCAR-8 ovarian = system: OVCAR-8 ovarian
HL-60(TB) leukemia = system: HL-60(TB) leukemia
CAKI-1 renal = system: CAKI-1 renal
COLO 205 colon = system: COLO 205 colon
EKVX NSCLC = system: EKVX NSCLC
HOP-92 NSCLC = system: HOP-92 NSCLC
DLD-1 colon = system: DLD-1 colon
SNB-19 CNS = system: SNB-19 CNS
SNB-78 CNS = system: SNB-78 CNS
SK-OV-3 ovarian = system: SK-OV-3 ovarian
ACHN renal = system: ACHN renal
LXFL 529 NSCLC = system: LXFL 529 NSCLC
HCC-2998 colon = system: HCC-2998 colon
OVCAR-3 ovarian = system: OVCAR-3 ovarian
KM12 colon = system: KM12 colon
UO-31 renal = system: UO-31 renal
M19-MEL melanoma = system: M19-MEL melanoma
CCRF-CEM leukemia = system: CCRF-CEM leukemia
SK-MEL-28 melanoma = system: SK-MEL-28 melanoma
TK-10 renal = system: TK-10 renal
M14 melanoma = system: M14 melanoma
U251 CNS = system: U251 CNS
NCI-H23 lung = system: NCI-H23 lung
OVCAR-5 ovarian = system: OVCAR-5 ovarian
LOX IMVI melanoma = system: LOX IMVI melanoma
MOLT-4 leukemia = system: MOLT-4 leukemia
DMS 273 small cell lung = system: DMS 273 small cell lung
A549 NSCLC = system: A549 NSCLC
IGROV1 ovarian = system: IGROV1 ovarian

## CCC[CH2][Sn]([Cl])([Cl])[CH2]CCC
OVCAR-4 ovarian
  GI50: 1400 nM
  TGI: 2780 nM
SK-MEL-2 melanoma
  GI50: 495 nM
  TGI: 1540 nM
HCT-15 colon
  GI50: 738 nM
  TGI: 2240 nM
HOP-62 NSCLC
  GI50: 1920 nM
  TGI: 3360 nM
K-562 leukemia
  GI50: 233 nM
  TGI: 1240 nM
RXF 393 renal
  GI50: 232 nM
  TGI: 490 nM
UACC-257 melanoma
  GI50: 854 nM
  TGI: 2260 nM
XF 498 CNS
  GI50: 534 nM
  TGI: 1440 nM
SF-539 CNS
  GI50: 870 nM
  TGI: 2190 nM
HCT-116 colon
  GI50: 1170 nM
  TGI: 2610 nM
SN12C renal
  GI50: 966 nM
  TGI: 2250 nM
SNB-75 CNS
  GI50: 894 nM
  TGI: 2280 nM
NCI-H226 lung
  GI50: 1820 nM
  TGI: 5010 nM
SW-620 colon
  GI50: 333 nM
  TGI: 1240 nM
786-0 renal
  GI50: 714 nM
  TGI: 2040 nM
HT29 colon
  GI50: 1440 nM
  TGI: 2810 nM
UACC-62 melanoma
  GI50: 429 nM
  TGI: 1630 nM
SK-MEL-5 melanoma
  GI50: 509 nM
  TGI: 1550 nM
NCI-H460 lung
  GI50: 1750 nM
  TGI: 3720 nM
MALME-3M melanoma
  GI50: 371 nM
  TGI: 1440 nM
RPMI-8226 leukemia
  GI50: 198 nM
  TGI: 723 nM
HOP-18 NSCLC
  GI50: 1290 nM
  TGI: 2560 nM
KM20L2 colon
  GI50: 1490 nM
  TGI: 3010 nM
SF-268 CNS
  GI50: 457 nM
  TGI: 1770 nM
SR leukemia
  GI50: 296 nM
  TGI: 1210 nM
SF-295 CNS
  GI50: 1530 nM
  TGI: 2920 nM
OVCAR-8 ovarian
  GI50: 1880 nM
  TGI: 7020 nM
HL-60(TB) leukemia
  GI50: 275 nM
  TGI: 1020 nM
CAKI-1 renal
  GI50: 295 nM
  TGI: 1440 nM
COLO 205 colon
  GI50: 1150 nM
  TGI: 3200 nM
EKVX NSCLC
  GI50: 848 nM
  TGI: 2250 nM
HOP-92 NSCLC
  GI50: 1150 nM
  TGI: 2640 nM
DLD-1 colon
  GI50: 649 nM
  TGI: 1990 nM
SNB-19 CNS
  GI50: 948 nM
  TGI: 2170 nM
SNB-78 CNS
  GI50: 333 nM
  TGI: 1430 nM
SK-OV-3 ovarian
  GI50: 1670 nM
  TGI: 3080 nM
ACHN renal
  GI50: 449 nM
  TGI: 1620 nM
LXFL 529 NSCLC
  GI50: 138 nM
  TGI: 474 nM
HCC-2998 colon
  GI50: 1100 nM
  TGI: 2320 nM
OVCAR-3 ovarian
  GI50: 1030 nM
  TGI: 2320 nM
KM12 colon
  GI50: 1350 nM
  TGI: 2810 nM
UO-31 renal
  GI50: 1390 nM
  TGI: 2690 nM
M19-MEL melanoma
  TGI: 2210 nM
CCRF-CEM leukemia
  GI50: 221 nM
  TGI: 781 nM
SK-MEL-28 melanoma
  GI50: 363 nM
  TGI: 1360 nM
TK-10 renal
  GI50: 569 nM
  TGI: 1770 nM
M14 melanoma
  GI50: 1140 nM
  TGI: 2780 nM
U251 CNS
  GI50: 472 nM
  TGI: 1620 nM
NCI-H23 lung
  GI50: 620 nM
  TGI: 2210 nM
OVCAR-5 ovarian
  GI50: 1510 nM
  TGI: 2890 nM
LOX IMVI melanoma
  GI50: 464 nM
  TGI: 1840 nM
MOLT-4 leukemia
  GI50: 356 nM
  TGI: 2530 nM
DMS 273 small cell lung
  GI50: 1290 nM
  TGI: 3730 nM
A549 NSCLC
  GI50: 2650 nM
  TGI: 8250 nM
IGROV1 ovarian
  GI50: 1040 nM
  TGI: 1620 nM
